Where two headings read alike, the source gives them in different places. Each block holds one compound with its values, some of them ahead of it.
Experiments:
[1] = Log P by HPLC on reversed phase columns (EEC directive 79/831 Annex V.A8); format: physicochemical; settings: for chromatographic logP: reversed phase HPLC columns
Protocol: In the above table, measurement of Log P values was performed according to EEC directive 79/831 Annex V.A8 by HPLC (High Performance Liquid Chromatography) on reversed phase columns with the following methods: • [^a] Log P value is determined by measurement of LC-UV, in an acidic range, with 0.1% formic acid in water and acetonitrile as eluent (linear gradient from 10% acetonitrile to 95% acetonitrile). • [^b] Log P value is determined by measurement of LC-UV, in a neutral range, with 0.001 molar ammonium acetate solution in water and acetonitrile as eluent (linear gradient from 10% acetonitrile to 95% acetonitrile). • [^c] Log P value is determined by measurement of LC-UV, in an acidic range, with 0.1% phosphoric acid and acetonitrile as eluent (linear gradient from 10% acetonitrile to 95% acetonitrile).
If more than one Log P value is available within the same method, all the values are given and separated by “+”.
Calibration was done with straight-chain alkan2-ones (with 3 to 16 carbon atoms) with known Log P values (measurement of Log P values using retention times with linear interpolation between successive alkanones). Lambda-max-values were determined using UV-spectra from 200 nm to 400 nm and the peak values of the chromatographic signals.

[2] = tested on: salicylate responsive promoter sequence of the PR1 (pathogenesis-related protein I) gene (AT2G14610); experiment: Induction of defense gene expression in Arabidopsis thaliana (PR1 promoter-GFP reporter plants); format: in vivo; settings: 72 h, 3rd day after spraying, mock treated leaves set as 1.00, read-out: relative fluorescence value; for fold induction at 75 ppm: 75 ppm of compound
Protocol: Arabidopsis thaliana reporter plants containing the coding sequence of a green fluorescent protein (GFP) linked to the salicylate responsive promoter sequence of the PR1 (pathogenesis-related protein I) gene (AT2G14610) were grown for five days and then sprayed with compounds. On the 3rd day after spraying, plant fluorescence was assessed with a MacroFluo instrument from Leica Microsystems (Wetzlar, Germany). Fluorescences were quantified with the Meta-Morph Microscopy Automation & Image Analysis Software (Molecular Devices, Sunnyvale, Calif., United States).
Background fluorescence in mock treated leaves was set as 1.00.

[3] = tested on: Colletotrichum lindemuthianum; experiment: Colletotrichum lindemuthianum in vitro cell test; format: cell-based; settings: 144 h, 20 ppm of active ingredient, 6 days incubation, read-out: efficacy (direct activity, inhibition of fungal growth)
Protocol: Solvent: DMSO Culture medium: 14.6 g anhydrous D-glucose (VWR), 7.1 g Mycological Peptone (Oxoid), 1.4 g granulated Yeast Extract (Merck), QSP 1 liter Inoculum: spores suspension Fungicides were solubilized in DMSO and the solution used to prepare the required range of concentrations. The final concentration of DMSO used in the assay was ≤1%. A spore suspension of C. lindemuthianum was prepared and diluted to the desired spore density. Fungicides were evaluated for their ability to inhibit spores germination and mycelium growth in liquid culture assay. The compounds were added in the desired concentration to the culture medium with spores. After 6 days incubation, fungi-toxicity of compounds was determined by spectrometric measurement of mycelium growth. Inhibition of fungal growth was determined by comparing the absorbance values in wells containing the fungicides with the absorbance in control wells without fungicides.

[4] = tested on: Peronospora parasitica; experiment: In vivo preventive test on Peronospora parasitica (crucifer downy mildew); settings: Hyaloperonospora parasitica, 120 h; 125 ppm of active ingredient; cabbage; evaluated 5 days after inoculation; read-out: efficacy
Protocol: (§1) The tested active ingredients were prepared by homogenization in a mixture of acetone/Dimethyl sulfoxide/Tween®, and then diluted with water to obtain the desired active material concentration.
(§2) The young plants of cabbage were treated by spraying the active ingredient prepared as described above. Control plants were treated only with an aqueous solution of acetone/Dimethyl sulfoxide/Tween®.
After 72 hours, the plants were contaminated by spraying the leaves with an aqueous suspension of Peronospora parasitica spores. The contaminated cabbage plants were incubated for 5 days at 20° C. and at 100% relative humidity.
The test was evaluated 5 days after the inoculation. 0% means an efficacy which corresponds to that of the control plants while an efficacy of 100% means that no disease was observed.

[5] = tested on: Xanthomonas campestris pv. campestris; experiment: Xanthomonas campestris pv. campestris in vitro cell test; format: cell-based; settings: 20 ppm of active ingredient, 24 h incubation, read-out: efficacy (direct activity, inhibition of bacteria growth)
Protocol: Solvent: DMSO Culture medium: LB broth medium (Luria Broth Miller) Sigma Inoculum: bacteria suspension Compounds were solubilized in DMSO and the solution used to prepare the required range of concentrations. The final concentration of DMSO used in the assay was ≤1%. Inoculum was prepared from a pre-culture of bacteria grown in liquid medium and diluted to the desired optical density (OD). Compounds were evaluated for their ability to inhibit bacteria growth in liquid culture assay. The compounds were added in the desired concentrations to culture medium containing the bacteria suspension. After 24 h of incubation, the efficacy of compounds was determined by spectrometric measurement of bacteria growth. Inhibition was determined by comparing the absorbance values in wells containing the compounds with the absorbance in control wells without active ingredients.

[6] = tested on: Uromyces appendiculatus; experiment: In vivo preventive test on Uromyces appendiculatus (bean rust); settings: Uromyces appendiculatus, 240 h, bean, evaluated 10 days after inoculation, read-out: efficacy; for pest or weed control at 125 ppm: 125 ppm of active ingredient; for pest or weed control at 31 ppm: 31 ppm of active ingredient; for pest or weed control at 500 ppm: 500 ppm of active ingredient
Protocol: as §1
The young plants of bean were treated by spraying the active ingredient prepared as described above.
Control plants were treated only with an aqueous solution of acetone/Dimethyl sulfoxide/Tween®.
After 72 hours, the plants were contaminated by spraying the leaves with an aqueous suspension of Uromyces appendiculatus spores. The contaminated bean plants were incubated for 24 hours at 20° C. and at 100% relative humidity and then for 9 days at 20° C. and at 70-80% relative humidity.
The test was evaluated 10 days after the inoculation. 0% means an efficacy which corresponds to that of the control plants while an efficacy of 100% means that no disease was observed.
Compound CMP1 was tested in an in vivo preventive test on Uromyces appendiculatus (bean rust) in the same conditions as described in Example G.

[7] = tested on: Xanthomonas campestris pv. campestris; experiment: In vivo preventive test on Xanthomonas campestris pv. campestris (black rot on cabbage); settings: Xanthomonas campestris, cabbage, evaluated 8 or 10 days after inoculation, read-out: efficacy; for pest or weed control at 31 ppm: 31 ppm of active ingredient; for pest or weed control at 125 ppm: 125 ppm of active ingredient
Protocol: as §1, §2
After 72 hours, the plants were contaminated by spraying the leaves with an aqueous bacteria suspension of Xanthomonas campestris pv. campestris. The contaminated cabbage plants were incubated for 8 or 10 days at 27° C. at 95% relative humidity.
The test was evaluated 8 or 10 days after the inoculation. 0% means an efficacy which corresponds to that of the control plants while an efficacy of 100% means that no disease was observed.
Compound CMP1 was tested in an in vivo preventive test on Xanthomonas campestris pv. campestris (black rot on cabbage) in the same conditions as described in Example F.

[8] = method [a]: LC-UV, acidic range, 0.1% formic acid in water and acetonitrile as eluent
[9] = given in preparation examples, method not marked

LogP [1, 8]: 5.61^[a]
SMILES: O=C1SC(c2sc(Br)c(Br)c2Br)=NC12CC2 [I.04]

SMILES: O=C(O)c1ccccc1O [Salicylic acid, reference compound]
fold induction at 300 ppm [2]: 2.7

chromatographic logP [1, 9]: 2.95
SMILES: O=C(O)C1(NC(=S)c2sc(Br)c(Br)c2F)CC1 [1-{[(4,5-dibromo-3-fluoro-2-thienyl)carbonothioyl]amino}cyclopropanecarboxylic acid]

chromatographic logP [1, 8]: 4.51
SMILES: Cc1c(C2=NC(C)(C)C(=O)O2)sc(Cl)c1Cl [I.24]
inhibition at 20 ppm [3]: ≤ 30%
pest or weed control at 125 ppm [4]: 80 to 89%
inhibition at 20 ppm [5]: ≤ 30%
pest or weed control at 125 ppm [6]: 90 to 100%

LogP [1, 8]: 3.25^[a]
SMILES: Cc1c(C2=NC3(CC3)C(=O)O2)sc(C#N)c1Cl [I.07]

chromatographic logP [1, 9]: 2.05
SMILES: Cc1c(C(=O)O)sc(C#N)c1Br [4-bromo-5-cyano-3-methylthiophene-2-carboxylic acid]

chromatographic logP [1, 8]: 4.26
SMILES: CC1(C)N=C(c2sc(Cl)c(Br)c2Cl)OC1=O [I.21]
inhibition at 20 ppm [3]: ≤ 30%
pest or weed control at 125 ppm [4]: 90 to 100%
inhibition at 20 ppm [5]: ≤ 30%
pest or weed control at 31 ppm [6]: 90 to 100%
pest or weed control at 125 ppm [6]: 90 to 100%

LogP [1, 8]: 4.32^[a]
SMILES: CC1(C)N=C(c2sc(Cl)c(Br)c2Br)OC1=O [I.18]

LogP [1, 8]: 5.61^[a]
SMILES: O=C1SC(c2sc(Br)c(Br)c2I)=NC12CC2 [I.14]

chromatographic logP [1, 8]: 5.61
SMILES: O=C1SC(c2sc(Cl)c(Cl)c2Cl)=NC12CC2 [I.01]
fold induction at 300 ppm [2]: > 2
pest or weed control at 125 ppm [4]: 80 to 89%
pest or weed control at 31 ppm [7]: 80 to 89%
inhibition at 20 ppm [5]: ≤ 30%
pest or weed control at 500 ppm [6]: 90 to 100%

LogP [1, 8]: 5.31^[a]
SMILES: Cc1c(C2=NC(C(C)C)C(=O)O2)sc(Br)c1Br (stereo not shown) [I.10]

chromatographic logP [1, 9]: 2.31
SMILES: COC(=O)C1(NC(=O)c2sc(C#N)c(Br)c2C)CC1 [methyl 1-{[(4-bromo-5-cyano-3-methyl-2-thienyl)carbonyl]amino}cyclopropanecarboxylate]

chromatographic logP [1, 8]: 4.33
SMILES: CC1(C)N=C(c2sc(Cl)c(Cl)c2Br)OC1=O [I.23]
inhibition at 20 ppm [3]: ≤ 30%
inhibition at 20 ppm [5]: ≤ 30%
pest or weed control at 31 ppm [6]: 70 to 79%

chromatographic logP [1, 9]: 5.08
chromatographic logP [1, 8]: 5.08
SMILES: O=C1SC(c2sc(Br)c(Br)c2F)=NC12CC2 [I.03, 5-(4,5-dibromo-3-fluoro-2-thienyl)-6-thia-4-azaspiro[2.4]hept-4-en-7-one]
fold induction at 300 ppm [2]: > 2
inhibition at 20 ppm [3]: ≤ 30%
pest or weed control at 31 ppm [7]: 70 to 79%
pest or weed control at 125 ppm [7]: 70 to 79%
inhibition at 20 ppm [5]: ≤ 30%

chromatographic logP [1, 9]: 3.91
SMILES: COC(=O)C1(NC(=S)c2sc(Br)c(Br)c2F)CC1 [methyl 1-{[(4,5-dibromo-3-fluoro-2-thienyl)carbonothioyl]amino}cyclopropanecarboxylate]

chromatographic logP [1, 8]: 4.51
SMILES: O=C1OC(c2sc(Br)c(Br)c2Cl)=NC12CCC2 [I.17]
fold induction at 75 ppm [2]: > 2
fold induction at 300 ppm [2]: > 2
inhibition at 20 ppm [3]: ≤ 30%
pest or weed control at 125 ppm [4]: 90 to 100%
inhibition at 20 ppm [5]: ≤ 30%
pest or weed control at 125 ppm [6]: 90 to 100%

chromatographic logP [1, 8]: 5.65
SMILES: Cc1c(C2=NC3(CC3)C(=O)S2)sc(Br)c1Br [I.02]
fold induction at 75 ppm [2]: > 2
fold induction at 300 ppm [2]: > 2
inhibition at 20 ppm [3]: ≤ 30%
pest or weed control at 125 ppm [7]: 80 to 89%
inhibition at 20 ppm [5]: ≤ 30%
pest or weed control at 500 ppm [6]: 70 to 79%

LogP [1]: 5.53^[a]
SMILES: Cc1c(C2=NC3(CC3)C(=O)S2)sc(Cl)c1Cl [I.15]

LogP [1, 8]: 2.83^[a]
SMILES: N#Cc1sc(C2=NC3(CC3)C(=O)O2)cc1Br [I.05]

chromatographic logP [1, 8]: 4.75
SMILES: Cc1c(C2=NC3(CCC3)C(=O)O2)sc(Cl)c1Cl [I.19]
inhibition at 20 ppm [3]: ≤ 30%
pest or weed control at 125 ppm [4]: 90 to 100%
inhibition at 20 ppm [5]: ≤ 30%
pest or weed control at 31 ppm [6]: 90 to 100%
pest or weed control at 125 ppm [6]: 90 to 100%

Log P [1, 9]: 1.84
chromatographic logP [1, 9]: 1.88
SMILES: Cc1c(C(=O)NC2(C(=O)O)CC2)sc(C#N)c1Br [1-{[(4-bromo-5-cyano-3-methyl-2-thienyl)carbonyl]amino}cyclopropanecarboxylic acid]

chromatographic logP [1, 8]: 3.77
SMILES: CC1(C)N=C(c2sc(Br)c(Br)c2F)OC1=O [I.16]
fold induction at 75 ppm [2]: > 2
fold induction at 300 ppm [2]: > 2
inhibition at 20 ppm [3]: ≤ 30%
pest or weed control at 125 ppm [4]: 90 to 100%
inhibition at 20 ppm [5]: ≤ 30%
pest or weed control at 31 ppm [6]: 90 to 100%
pest or weed control at 125 ppm [6]: 90 to 100%

From patent publication US12492196B2, “Thienyloxazolones and analogues” (Bayer Aktiengesellschaft, priority 2019, dated 2025)
